Results from patent US6407257B1, “Derivatives of erythromycin, their preparation process and their use as medicaments” (Aventis Pharma S.A., priority 1998, dated 2002).

Assays:
Streptococcus pyogenes = test: Method of dilutions in liquid medium (minimal inhibitory concentration); assay type: cell-based; conditions: incubation 24 hours at 37° C., growth inhibition by transillumination
Procedure: (§1) A—Method of Dilutions in Liquid Medium A series of tubes were prepared in which the same quantity of nutritive sterile medium is distributed. Increasing quantities of the product to be studied are distributed into each tube, then each tube is sown with a bacterial strain. After incubation for 24 hours in a heating chamber at 37° C., the growth inhibition is evaluated by transillumination, which allows the minimal inhibitory concentrations to be determined, expressed in micrograms/cm^3. The following results were obtained

Streptococcus pneumoniae = test: as above; assay type: cell-based; conditions: incubation 24 hours at 37° C., growth inhibition by transillumination
Procedure: as §1

2-Fluoro-11,12-dideoxy-3-de[(2,6-dideoxy-3-C-methyl-3-0-methyl-alpha-L-ribohexopyranosyl)oxy]-6-0-methyl-3-oxo-12,11-[oxycarbonyl[[4-[4-(4-aminophenyl)-1H-imidazol-1-yl]butyl]imino]]-eryrthromycin [EX. 2]
minimal inhibitory concentrations (Streptococcus pyogenes): 0.3 micrograms/cm^3
minimal inhibitory concentrations (Streptococcus pneumoniae): 0.150 micrograms/cm^3

CCC1OC(=O)C(C)C(=O)C(C)C(OC2OC(C)CC(N(C)C)C2O)C(C)(OC)CC(C)C(=O)C(C)C2N(CCCCn3cnc(-c4ccc(N)cc4)c3)C(=O)OC12C [EX. 1, 11,12-Dideoxy-3-de[(2,6-dideoxy-3-C-methyl-3-0-methyl-alpha-L-ribohexopyranosyl)oxy]-6-0-methyl-3-oxo-12,11-[oxycarbonyl-[[4-[4-(4-aminophenyl)-1H-imidazol-1-yl]butyl]imino]]-eryrthromycin]
minimal inhibitory concentrations (Streptococcus pyogenes): 2.5 micrograms/cm^3
minimal inhibitory concentrations (Streptococcus pneumoniae): 1.2 micrograms/cm^3
